We go through 4 compounds from patent US9687845B2, “Self-loading microfluidic device and methods of use” (Wisconsin Alumni Research Foundation, priority 2011, dated 2017).

The structures appear in SMILES notation. Where two headings read alike, the source gives them in different places.

Experiment [1] concerns E. coli (UT189). Kind of experiment: Growth in sugars, microfluidic device (phenol red colour change). It is filed as cell-based. Conditions: E. coli (UT189); sugar 1% (w/v), LB with 0.05% phenol red pH 8.2. The method, then: (§1) Self-loading microfluidic devices were prepared as described above. Reaction wells were filled with different sugar solutions including (1) cellbiose, (2) glycerol, (3) lactose, (4) mannitol, (5) mannose, (6) raffinose, (7) sucrose, (8) trehalose, (9) xylose, and (10) control (no sugar) (FIG. 28). The final concentration of the sugar in each chamber was 1% (w/v). After loading the sugar solutions, the liquid was evaporated as described above. The devices were then assembled and degassed by vacuum.
(§2) Cultures of A. baumannii-1, A. baumannii-2, K. pneumoniea-1, K. pneumoniea-2, S. aureus-1, S. aureus-2, E. coli (UT189), E. faecalis-1, E. faecalis-2, V. cholerae-1, and (11) V. cholerae-2 were grown for 15 hours in LB (pH 7.0). The cultures were then diluted at a ratio of 1:50 in LB containing 0.05% (w/v) phenol red (pH8.2) and added to individual devices using degas-driven flow. Growth of bacteria results in a pH change of the LB that causes a color change from red (illustrated in FIGS. 29 and 30 as filled chambers) to yellow (illustrated in FIGS. 29 and 30 as hatched chambers).

Experiment [2] deals with E. faecalis. The experiment is described as above. It is filed as cell-based. The conditions noted are these: E. faecalis-1 and E. faecalis-2; by 18 hours of incubation. The method, then:
as §1, §2

The test system of experiment [3] is K. pneumoniae. Described as above. Conditions: for Growth, Device: K. pneumoniae, sugar 1% (w/v), LB with 0.05% phenol red pH 8.2; for growth in device chamber: K. pneumoniea-1 and K. pneumoniea-2, by 4 hours of incubation. Format: cell-based. The method, then: as §1, §2
In experiment [4] the test system is S. aureus. Described as above. Format: cell-based. The conditions noted are these: for growth in device chamber: S. aureus-1, by 8 hours of incubation; for Growth, Device: S. aureus, sugar 1% (w/v), LB with 0.05% phenol red pH 8.2. The method, then: as §1, §2
Another experiment relates to V. cholerae. The description is as above. Format: cell-based. Conditions: V. cholerae-1 and V. cholerae-2; by 4 hours of incubation. The method, then:
as §1, §2

Experiment [5] concerns E. coli (UT189). In words: Growth in sugars, culture tubes. Format: cell-based. The text has this: (§3) Results observed in microfluidic devices are illustrated in FIGS. 29A-F and 30A-E. The predicted growth as compared to devices and culture tubes are summarized in Table 2.
Experiment [6] concerns E. faecalis. Kind of experiment: Growth in sugars, culture tubes. It is filed as cell-based.
From the text: as §3

For experiment [7], the system named is K. pneumoniae. In words: Growth in sugars, culture tubes. It is filed as cell-based.
From the text: as §3

The test system of experiment [8] is S. aureus. In words: Growth in sugars, culture tubes. It is filed as cell-based. The conditions noted are these: culture tubes.
From the text: as §3

The subject of experiment [9] is E. faecalis. Conditions: cited from earlier work.
In experiment [10] the test system is S. aureus. The conditions noted are these: cited from earlier work.
Experiment [11] relates to E. coli (UT189). Conditions: cited from earlier work.
In experiment [12] the test system is E. coli (MG1655). In words: MIC measurement using the self-loading microfluidic device. Format: cell-based. The conditions noted are these: for MIC, Device: E. coli, 18 h at 35° C., CAMBH pH 8.2 with 1% glucose and 0.05% phenol red, dilution series 0.5-1024 μg/mL. The method, then:
(§4) Minor adjustments were made to procedures mimicking the CLSI guidelines to perform MIC measurements using microfluidic devices prepared as described above. Antibiotic stock solutions (10 mg/mL in sterile deionized water) of vancomycin hydrochloride, tetracycline hydrochloride, and kanamycin monosulfate were used to prepare a 1:10 dilution series. Appropriate amounts of these dilutions were added to sterile deionized water to create a two-fold dilution series that varied from 0.5-1024 μg/mL. Antibiotic solution (2.94 μL) was added to each chamber with the lowest antibiotic concentration located closest to the inlet port and the highest antibiotic concentration located in the chamber closest to the vacuum well. After antibiotic loading, the device was placed in a laminar flow hood to evaporate the liquid. After the liquid was evaporated, the device was assembled by placing the layer of PDMS forming the channel section over the chamber layer containing the dried antibiotic such that the channels connected the chambers. The assembled device was then placed under vacuum.
(§5) The standardized culture was then diluted 1:200 in CAMBH media, pH 8.2 supplemented with 1% glucose and 0.05% phenol red to provide a colorimetric change upon growth. The device was removed from the vacuum and 20 μL of cell suspension was pipetted onto the inlet port. […] Bacterial growth changed the pH of the liquid nutrient media containing the indicator phenol red, and produced a visible color change that was used to identify the cell growth in chambers.

Experiment [13] deals with E. faecalis (1131). The experiment is described as above. It is filed as cell-based. Conditions: 18 h at 35° C., CAMBH pH 8.2 with 1% glucose and 0.05% phenol red, dilution series 0.5-1024 μg/mL. The method, then:
as §4, §5

Experiment [14] concerns K. pneumoniae. The description is as above. Format: cell-based. Conditions: 18 h at 35° C., CAMBH pH 8.2 with 1% glucose and 0.05% phenol red, dilution series 0.5-1024 μg/mL. The method, then: as §4, §5
Experiment [15] relates to P. mirabilis (HI4320). The description is as above. Format: cell-based. The conditions noted are these: 18 h at 35° C., CAMBH pH 8.2 with 1% glucose and 0.05% phenol red, dilution series 0.5-1024 μg/mL. The method, then: as §4, §5
The subject of experiment [16] is E. faecalis (1131). In words: Off-chip MIC, broth dilution method according to CLSI protocols. It is filed as cell-based. The arrangement: unit not given beside the values. Conditions: CAMHB, 20 h at 35° C. (vancomycin 24 h). The method, then: (§6) Off-chip MIC assays using the broth dilution method according to CLSI protocols were performed as control experiments and to validate experimental data obtained with the microfluidic device.
On the technique in general: Dilution methods test growth across graded concentrations, often in twofold steps.

Experiment [17] deals with P. mirabilis (HI4320). The description is as above. Format: cell-based. The arrangement: unit not given beside the values. Conditions: CAMHB, 20 h at 35° C. The method, then: as §6
The test system of experiment [18] is K. pneumoniae. The description is as above. Format: cell-based. Conditions: CAMHB, 20 h at 35° C. The method, then:
as §6

Experiment [19] concerns E. coli (MG1655). The experiment is described as above. It is filed as cell-based. More on the design: MIC, Broth: unit not given beside the values. The conditions noted are these: for MIC, Broth: E. coli, broth dilution, CAMHB, 20 h at 35° C. The method, then: as §6
The test system of experiment [20] is kanamycin-resistant strain of E. coli MG1655. In words: Susceptibility to multiple antibiotics on a single microfluidic device using breakpoint values. Format: cell-based. The conditions noted are these: 18 h; for effect on growth of the strain: vancomycin 2, 4, 8 μg/mL, tetracycline 0.5, 1, 2 μg/mL, kanamycin 1, 2, 4 μg/mL. The text has this: In this Example, a single microfluidic device was used to simultaneously test the susceptibility of the kanamycin-resistant strain of E. coli MG1655 described above to multiple antibiotics using breakpoint values.
In clinical microbiology, a strain is classified as susceptible, intermediate, or resistant based on the relationship of the MIC of an antibiotic to specified ‘breakpoint’ values. Breakpoint values are set by organizations, such as the CLSI, and take into consideration MIC values of wild type strains, pharmacokinetic/pharmacodynamic data, and clinical outcomes. Breakpoint values are available for specific clinically relevant pairings of bacterial species and antibiotics and enable clinical decisions without knowing the exact MIC value.
Specifically, vancomycin, tetracycline, and kanamycin were added to the reaction wells of a single device. The most common breakpoints for vancomycin (susceptible <2 μg/mL, resistant >2 μg/mL), tetracycline (susceptible <1 μg/mL, intermediate=2 μg/mL, resistant >2 μg/mL), and gentamicin (susceptible <2 μg/mL, intermediate=4 μg/mL, resistant >4 μg/mL) were used. As there are no published breakpoints available for kanamycin, the breakpoint values for the structurally related aminoglycoside, gentamicin, against aerobic bacteria was used. A microfluidic device with ten chambers was prepared as described in Example 1 above. The ten chambers were divided into three chambers for each antibiotic vancomycin (2, 4, 8 μg/mL), tetracycline (0.5, 1, 2 μg/mL), and kanamycin (1, 2, 4 μg/mL) and one chamber for a control containing no antibiotic.

The test system of experiment [21] is kanamycin-resistant E. coli strain (from MG1655). In words: microbe, parasite or virus in culture. The conditions noted are these: Escherichia coli, MG1655, 18 h, read-out: MIC of the resistant strain.
Procedure: Specifically, 100 μL of an overnight culture of E. coli MG1655 were plated on LB agar plates supplemented with 16 μg/mL kanamycin; the antibiotic concentration was ˜2× the MIC of kanamycin measured against E. coli MG1655. […] One of these colonies was characterized for its sensitivity to kanamycin in the microfluidic device. The kanamycin-resistant strain was compared to the wild type parent strain.
The devices were assembled and placed under vacuum for degassing. After the devices were removed from the vacuum, an aliquot (20 μL) of a suspension of cells of the resistant strain was introduced into the inlet port of one device and an aliquot (20 μL) of a suspension of cells of the wild type strain was introduced into the inlet port of the second device. Degas-driven flow filled and isolated the samples in the chambers. The devices were incubated for 18 h at 35° C. in a humidified incubator.
To eliminate external equipment needed for interpreting the test results, a pH sensor was incorporated to indicate cell growth. Specifically, the pH indicator phenol red (0.05% w/v) and glucose (1% w/v) were added to CAMHB media and adjusted the pH to 8.2. Phenol red was selected as it produces a distinct color change close to neutral pH and is not absorbed by PDMS. At the initial pH of the nutrient media, pH 8.2, phenol red appears bright red. […]
For experiment [22] the test system is unchanged. Kind of experiment: microbe, parasite or virus in culture. The conditions noted are these: Escherichia coli, MG1655, read-out: MIC of the resistant strain, control broth dilution.
Procedure: A 1:10 dilution series of the stock solutions in cation-adjusted Mueller-Hinton broth (CAMHB) was prepared and added to CAMBH (pH 7.3) to create a two-fold series dilution in which the total volume was 1 mL. Cell solutions of E. faecalis (1131), P. mirabilis (HI4320), K. pneumoniae, and E. coli (MG1655) were prepared in 13×100 mm tubes by adjusting the concentration of cells in overnight cultures to match the turbidity of a 0.5 McFarland standard (˜10^8 CFU/mL) using CAMHB. The solutions were diluted 100-fold in CAMHB and 1 mL of the suspension was added to 1 mL of antibiotic solution—prepared as described above—to yield a final cell concentration of ˜5×10^5 CFU/mL. The cultures were incubated for 20 h in a humidified incubator at 35° C. (no shaking) with the exception of experiments with vancomycin and E. faecalis, which were incubated for 24 h according to CLSI protocols. The MIC was determined as the lowest concentration of antibiotic at which no growth was visible after incubation.
Thus, the MIC of the kanamycin-resistant E. coli strain and the susceptible strain was determinable by visually identifying the chamber containing the lowest concentration of kanamycin in which the pH indicator remained red.
Wherever Growth, Predicted is given: key: + indicates growth; − indicates no growth.

For the compound `OC[C@H]1O[C@@](CO)(O[C@H]2O[C@H](CO)[C@@H](O)[C@H](O)[C@H]2O)[C@@H](O)[C@@H]1O` [Sucrose, sucrose], the figures for the “Growth, Device” value with E. coli (UT189) [1], in the experiment on K. pneumoniae [3] and with S. aureus [4] were “−”, “+” and “+”, respectively. Besides, the “growth in device chamber” value in the experiment with E. faecalis [2], in the experiment on K. pneumoniae [3], in the experiment with S. aureus [4] and with V. cholerae was “grew” throughout. In addition, the “Growth, Tube” value was “−” in the experiment on E. coli (UT189) [5], “+” in the experiment on E. faecalis [6], “+” in the experiment with K. pneumoniae [7] and “+” in the experiment with S. aureus [8]. The entries for the “Growth, Predicted” value in the experiment on E. faecalis [9], in the experiment with S. aureus [10] and in the experiment with E. coli (UT189) [11] were “+”, “+” and “−”, respectively.

Consider `OC[C@H]1O[C@H](O[C@H]2O[C@H](CO)[C@@H](O)[C@H](O)[C@H]2O)[C@H](O)[C@@H](O)[C@@H]1O` [Trehalose, trehalose], for which the entries for the “Growth, Device” value in the experiment on E. coli (UT189) [1], with K. pneumoniae [3] and with S. aureus [4] were “−”, “+” and “+”, respectively. Besides, the “growth in device chamber” value in the experiment on E. faecalis [2], in the experiment on K. pneumoniae [3], in the experiment on S. aureus [4] and with V. cholerae was “grew” in each case. Besides, the “Growth, Tube” value with E. coli (UT189) [5], with E. faecalis [6], in the experiment on K. pneumoniae [7] and in the experiment on S. aureus [8] was “+” each time. Further, the “Growth, Predicted” value with E. faecalis [9], in the experiment on S. aureus [10] and in the experiment with E. coli (UT189) [11] was “+” each time.

Regarding `NC[C@H]1O[C@H](O[C@H]2[C@H](O)[C@@H](O[C@H]3O[C@H](CO)[C@@H](O)[C@H](N)[C@H]3O)[C@H](N)C[C@@H]2N)[C@H](O)[C@@H](O)[C@@H]1O` [kanamycin, kanamycin monosulfate], the “MIC, Device” value is 4 against E. coli (MG1655) [12], 128 against E. faecalis (1131) [13], 2 against K. pneumoniae [14] and 8 against P. mirabilis (HI4320) [15]. The MIC in the experiment on E. coli (MG1655) [12] (Escherichia coli, MG1655, Example 5, 18 h at 35° C., phenol red indicator, read-out: MIC of the wild type strain) stood at 4 mg/L; in the experiment on E. coli (MG1655) [19] (Escherichia coli, MG1655, Example 5, standard liquid broth dilution assay, read-out: MIC of the wild type strain, control broth dilution), 8 mg/L; in [21], 64 mg/L; in [22], 128 mg/L. Besides, the “MIC, Broth” value against E. faecalis (1131) [16] is listed as 64; in the experiment on P. mirabilis (HI4320) [17], 4; against K. pneumoniae [18], 2; against E. coli (MG1655) [19], 8. Further, the “effect on growth of the strain” value in [20] was “did not have any effect”.

For the compound `CN(C)[C@@H]1C(O)=C(C(N)=O)C(=O)[C@@]2(O)C(O)=C3C(=O)c4c(O)cccc4[C@@](C)(O)[C@H]3C[C@@H]12.Cl` [tetracycline, tetracycline hydrochloride], the “MIC, Device” value in the experiment on E. coli (MG1655) [12] stood at 2; against E. faecalis (1131) [13], 64; in the experiment with K. pneumoniae [14], 8; against P. mirabilis (HI4320) [15] it was 128. For the same compound, the “MIC, Broth” value is on record as 32 with E. faecalis (1131) [16], 256 against P. mirabilis (HI4320) [17], 8 in the experiment with K. pneumoniae [18] and 1 with E. coli (MG1655) [19]. Further, the “effect on growth of the strain” value in experiment [20] is “inhibited the growth”. The “phenotype of the strain by breakpoint values” in experiment [20] (tetracycline breakpoints) is “intermediate (intermediate=2 μg/mL)”.
